The record followed here is patent US11123354B2, “Method for the treatment of osteoarthritis” (ABIOGEN PHARMA S.P.A., priority 2016, dated 2021).

A short description of the data set: Pharmacokinetics and knee joint localization of 14C-Chlodronate after single intra-articular injection. The class given is in vivo, rat. The conditions noted are these: for residual concentration in femoral articular cartilage / residual concentration in femoral articular cartilage as % of the value measured at t=30 minutes: first order exponential approximation; for radioactivity in Femoral Articular Cartilage / radioactivity in Tibial Articular Cartilage: osteoarthritic rats, single i.a. 0.1 mg (2 mg/ml). On the procedure:
In this study the pharmacokinetics of ^14C-Chlodronate was evaluated, and the localization of the labeled compound in the knee joint following a single intra-articular injection of 0.1 mg of ^14C-Chlodronate, administered as aqueous solution in a concentration of 2 mg/ml, in sham and osteoarthritic rat models was verified.
The pharmacokinetic parameters of ^14C-Chlodronate were determined by measuring the radioactivity of blood samples collected at different timepoints from the time of injection.
The localization of the labeled compound in the knee joint was determined by leg x-rays. The fitting of radioactivity concentrations, expressed in μCi/g, was performed by using standard curves.

The mark [1] stands for this setting: about two weeks after the injection.
Where [2] appears, read: osteoarthritis rat model, 30 minutes from the injection.

Regarding `O=P(O)(O)[14C](Cl)(Cl)P(=O)(O)O` [^14C-Chlodronate], the “radioactivity mean value in the cartilage” value (168 hours (7 days) after the injection) is “about 25 μCi/g”. For the same compound, the “radioactivity in cartilage as % of the value found half an hour after the injection” value (168 hours after the injection) is listed as “more than 62%”. Also, the “residual concentration in femoral articular cartilage” value runs as follows: (about 1 month after injection) “about 8.78 μCi/g”; under setting [1], “about 18.92 μCi/g”. Besides, the “residual concentration in femoral articular cartilage as % of the value measured at t=30 minutes” value (about 1 month after injection) is “about 24.27%” and the “residual concentration in femoral articular cartilage as % of the value measured at t=30 minutes” value under setting [1] is on record as “about 44.36%”. Further, the “concentration in both femoral and tibial cartilage relative to the value measured at t=30 minutes” value (about two weeks after the injection, first order exponential approximation of Table 7 data) was greater than 40%. Moreover, the “concentration of 14C-Chlodronate in the blood” value (after a few hours from the injection) is given as “very modest, practically negligible”. In addition, the “radioactivity in Femoral Articular Cartilage” value (t = 30 minutes) is on record as 42.649 μCi/g; the “radioactivity in Femoral Articular Cartilage” value (t = 6 hours) is reported as 36.163 μCi/g; the “radioactivity in Femoral Articular Cartilage” value (t = 24 hours) was 34.712 μCi/g; the “radioactivity in Femoral Articular Cartilage” value (t = 72 hours) came to 25.561 μCi/g; the “radioactivity in Femoral Articular Cartilage” value (t = 168 hours) is on record as 28.020 μCi/g. Also, the “radioactivity in Tibial Articular Cartilage” value is reported as 36.935 μCi/g (t = 30 minutes); 27.299 μCi/g (t = 6 hours); 27.840 μCi/g (t = 24 hours); 22.331 μCi/g (t = 72 hours); 21.165 μCi/g (t = 168 hours). For the same compound, the “radioactivity concentration in the articular cartilage” value under setting [2] is “about 40 μCi/g”. For the same compound, the “radioactivity concentration in the synovial cavity and in the femoral and tibial bone” value under setting [2] is on record as “lower than 1 μCi/g”.
